Assay results as given in paper PMC11466185, “Mechanisms and efficacy of small molecule latency-promoting agents to inhibit HIV reactivation ex vivo” (JCI Insight, 2024).
“And” between values parts separate entries of the source, which are not always exact repeats. Identical values can stand only once. Like-named read-outs stand apart in the source and are kept apart here.

Assays:
PBMCs [1] = format: cell-based, human; settings: 6 days after αCD3/28 activation, each row one participant
Procedure: (§1) Next, we evaluated the ability of the candidate LPAs to sustain the inhibitory effects during a prolonged ex vivo culture. To this end, PBMCs were cultured in the presence of individual drugs in DMSO or in DMSO alone as control, activated (anti-CD3/CD28), and harvested after 6 days. […] However, we decided to test the drug on day 6 because extra cells were available from some study participants.
(§2) For quantification of cell-associated HIV transcripts, PBMCs were harvested either after 24 hours or after 6 days. The cell viabilities were measured by trypan blue staining; then the cells were pelleted by centrifuging at 300g for 6 minutes and stored at –80°C. For quantification of virion-associated HIV RNA, cell culture supernatant was collected from 6 × 10^6 PBMCs that were treated and activated for 6 days as described above. Residual cells and cellular debris were subsequently removed from the supernatant by differential centrifugation (300g for 6 minutes, then 20,000g for 10 minutes), and the supernatant was stored at –80°C.
A) After six days, the viability was measured by trypan blue staining and then normalized to the levels of the activated DMSO (% of activated DMSO). Bars indicate medians and different colors indicate individual study participants. B-F) Each drug was tested in PBMCs from at least six ART-suppressed study participants (except for KRIBB11, n=5) and the PBMCs were aliquoted into wells at 6x10^6 cells/well. After activation, the cells were cultured with antiretrovirals in the presence of individual drugs in DMSO or DMSO alone as control. After six days, total RNA was extracted and the progression through different stages of HIV transcription was (1 picture or pasted object on this page, not shown here)

PBMCs [2] = experiment: Cell viability by trypan blue staining after 24 hours; format: cell-based, human; settings: for Viability (dose-response): 1 participant per drug, in % (unit assumed)
Procedure: Figure 1 Screening of candidate LPAs by measuring the change in multiply spliced HIV transcripts after activation. Each drug was tested in PBMCs from 2 ART-suppressed study participants (denoted in the legend by varying symbol shapes). PBMCs were aliquoted into wells at 6 × 10^6 cells/well. After activation, the cells were cultured with antiretrovirals in the presence of individual drugs in DMSO or DMSO alone as control. All conditions were tested in the presence of CD3/28 T cell–activating beads, except for the unactivated DMSO condition. (A) After 24 hours, the viability was measured by trypan blue staining and then normalized to the levels of the activated DMSO (% of activated DMSO). Bars indicate medians. (B) Total cellular RNA was extracted, and the levels of multiply spliced HIV transcripts (TatRev) were measured by RT-ddPCR, normalized to 1 μg of total cellular RNA, and expressed as a percentage of the activated DMSO control (% of activated DMSO). RT-dd, reverse transcription digital droplet; vRNA, viral RNA; HAT, histone acetyltransferase.
as §2

[3] = system: HIV transcripts (TAR, LLTR, Pol, PolyA, TatRev); experiment: Cell-associated HIV transcripts (RT-ddPCR) 6 days after anti-CD3/CD28 activation of PBMCs from ART-suppressed PWH; format: cell-based; settings: for LLTR/TAR / PolyA/LLTR / TatRev/PolyA: DMSO+CD3/28 = 1, Fig 4B, C and D; for LLTR HIV transcripts (DMSO αCD3/28 = 100): 6 days after αCD3/28 activation, each column one participant; for Pol / PolyA / TAR / TatRev: DMSO αCD3/28 = 100, Fig 4A
Procedure: as §1
Each drug was tested in PBMCs from at least 6 ART-suppressed study participants (except for KRIBB11, n = 5). PBMCs were aliquoted into wells at 6 × 10^6 cells/well. After activation, the cells were cultured with antiretrovirals in the presence of individual drugs in DMSO or DMSO alone as control. All conditions were tested in the presence of CD3/28 T cell–activating beads, except for the unactivated DMSO condition. After 6 days, total cellular RNA was extracted, and the progression through different stages of HIV transcription was quantified by measuring the levels of initiated (TAR), 5′ elongated (LLTR), midtranscribed/unspliced (Pol), completed (PolyA), and multiply spliced (TatRev) HIV transcripts. (A) The levels of all HIV transcripts were normalized to 1 μg of total cellular RNA and expressed as a percentage of the activated DMSO control (% of activated DMSO). Medians are shown as well as the individual values per study participant in different colors. (B–D) The effect of each drug on HIV transcriptional progression after activation was analyzed by the ratio of one HIV transcript to another. Ratios are independent of HIV infection frequency or normalization to cell numbers. Shown are the proportion of (B) all HIV transcripts that are elongated (LLTR/TAR), (C) elongated HIV transcripts that are completed (PolyA/LLTR), and (D) completed transcripts that are multiply spliced (TatRev/PolyA). Medians and IQR are presented, along with the individual values per study participant in different colors. P values were calculated using Wilcoxon’s signed-rank test: *P < 0.05.
PBMCs were isolated from fresh venous blood from 16 ART-suppressed HIV-infected study participants using Ficoll density gradient centrifugation. The cells were seeded at 6 × 10^6 cells/well and cultured with antiretrovirals (nevirapine and indinavir) to prevent new infection. On the next day, PBMCs were activated with anti-CD3/CD28–coated beads (Invitrogen) in the presence of 20 U/mL IL-2 and individual drugs in DMSO or DMSO alone as a control. Since we were limited in the PBMC yield per study participant, different study participants were used for different experiments (such as the initial screen, dose response, different time points, and studies in activated vs. unstimulated cells). In addition, the yields of PBMCs were sometimes insufficient to test all drugs for a given question or experiment.
as §2
Total cellular DNA and RNA were extracted in parallel using Trireagent (Molecular Research Center) according to the manufacturer’s instructions, except for study participants 2147 and 2461 (Figure 4), for whom DNA and RNA were extracted using the QIAGEN AllPrep DNA/RNA/miRNA Universal Kit with on-column DNase I treatment of the RNA and the manufacturer’s modification to enhance recovery of short transcripts.

## O=c1c(O)c(-c2ccc(O)c(O)c2)oc2cc(O)cc(O)c12 [quercetin]
PBMCs [1]; 5μM
  Cell viability (DMSO αCD3/28 = 100): 74.1 and 98.05 and 112.6 and 106 and 105.8
PBMCs [2]; dose 5 µM
  Viability (dose-response): 87.619
PBMCs [2]; dose 10 µM
  Viability (dose-response): 77.686
PBMCs [2]; study participant 150a
  Viability (Fig 1A): 100.02 % of activated DMSO
PBMCs [2]; study participant 152
  Viability (Fig 1A): 90.16 % of activated DMSO
[3]; participant 150b
  LLTR/TAR: 0.7842
  PolyA/LLTR: 1.289
  TatRev/PolyA: 0.75
[3]; participant 2027
  LLTR/TAR: 0.9301
  PolyA/LLTR: 0.981
  TatRev/PolyA: 0.6894
[3]; participant 2147a
  LLTR/TAR: 0.08494
  PolyA/LLTR: 0.5196
  TatRev/PolyA: 0.8518
[3]; participant 2161
  PolyA/LLTR: 0.79
  TatRev/PolyA: 0.8634
[3]; participant 2256
  LLTR/TAR: 0.9386
  PolyA/LLTR: 0.8949
[3]; participant 2461
  LLTR/TAR: 1.332
[3]; participant 2747
  TatRev/PolyA: 0

## pladienolide B
PBMCs [1]; 10nM
  Cell viability (DMSO αCD3/28 = 100): 115.2 and 113.39 and 90.65 and 128.6 and 121.6 and 94.2 and 112.8
PBMCs [2]; dose 0.1 nM
  Viability (dose-response): 74.768
PBMCs [2]; dose 1 nM
  Viability (dose-response): 75.444
PBMCs [2]; dose 10 nM
  Viability (dose-response): 68.259
PBMCs [2]; initial screening concentrations, Figure 1A
  Cell viability (in words): impact on cell viability
PBMCs [2]; study participant 150a
  Viability (Fig 1A): 75.5 % of activated DMSO
PBMCs [2]; study participant 152
  Viability (Fig 1A): 79.98 % of activated DMSO
[3]; 10nM
  LLTR HIV transcripts (DMSO αCD3/28 = 100): 48.15 and 112.06 and 64.44 and 97.37 and 80.45 and 82.86
[3]; participant 2027
  Pol: 56.14
  PolyA: 45.13
  TAR: 270.3
  TatRev: 0
  LLTR/TAR: 0.3065
  PolyA/LLTR: 0.5447
  TatRev/PolyA: 0
[3]; participant 2147a
  Pol: 74.51
  PolyA: 38.34
  TAR: 177.4
  TatRev: 22.95
  LLTR/TAR: 0.2714
  PolyA/LLTR: 0.7963
  TatRev/PolyA: 0.342
[3]; participant 2161
  Pol: 44.19
  PolyA: 152.38
  TAR: 52.78
  TatRev: 381.82
  LLTR/TAR: 1.5241
  PolyA/LLTR: 1.89
  TatRev/PolyA: 2.506
[3]; participant 2461
  PolyA: 53.85
  TAR: 91.45
  LLTR/TAR: 1.065
  PolyA/LLTR: 0.553
[3]; participant 2747
  Pol: 21.03
  PolyA: 65.33
  TAR: 95.91
  TatRev: 0
  TatRev/PolyA: 0
[3]; participant 2750
  Pol: 212.24
  PolyA: 74.85
  TAR: 108.21
  TatRev: 155
  LLTR/TAR: 1.036
  PolyA/LLTR: 0.668
  TatRev/PolyA: 2.0707

## CNc1ccc([N+](=O)[O-])c(Nc2ccc3[nH]ncc3c2)n1 [KRIBB11]
PBMCs [2]; study participant 150a
  Viability (Fig 1A): 102.97 % of activated DMSO
PBMCs [2]; study participant 152
  Viability (Fig 1A): 101.83 % of activated DMSO
[3]; 2.5μM
  LLTR HIV transcripts (DMSO αCD3/28 = 100): 71.6 and 44.44 and 38.82 and 82.14 and 98.47
[3]; participant 2027
  Pol: 73.68
  PolyA: 106.67
  TAR: 139.39
  TatRev: 11.11
  LLTR/TAR: 0.5893
  PolyA/LLTR: 1.299
  TatRev/PolyA: 0.1042
[3]; participant 2147a
  Pol: 33.33
  PolyA: 22.8
  TAR: 563.24
  TatRev: 46.99
  LLTR/TAR: 0.1271
  PolyA/LLTR: 0.3184
  TatRev/PolyA: 1.2464
[3]; participant 2256
  Pol: 169.23
  PolyA: 89.76
  TAR: 111.27
  TatRev: 84.19
  LLTR/TAR: 0.8849
  PolyA/LLTR: 0.9116
  TatRev/PolyA: 1.489
[3]; participant 2461
  PolyA: 176.92
  TAR: 67.9
  LLTR/TAR: 0.5717
  PolyA/LLTR: 4.558
[3]; participant 2747
  Pol: 8.97
  PolyA: 19.67
  TAR: 56.38
  TatRev: 30
